Measured values: patent US12605350B2, “Composition for preventing, ameliorating, or treating disease caused by nitration of tyrosine in proteins comprising tyrosine as effective component” (INDUSTRY-ACADEMIC COOPERATION FOUNDATION GYEONGSANG …, priority 2020, dated 2026)
“Also recorded” adds a separate entry of the source.

Key:
[1] = system: MnSOD; assay: activity of MnSOD, renal ischemia and reperfusion; format: in vivo, mouse; conditions: L-tyrosine 100 mg/kg oral for 4 days, IR
Procedure: C57BL/6 male mouse (23 to 25 g, KOATECH, South Korea) was allowed to have free access to diets and water in sterile breeding room with constant temperature and humidity. The animals were divided into 3 test groups, i.e., 1) Control group (Sham), 2) Renal ischemia having treatment with prepared solvent and induced reperfusion group (CMC+IR), and 3) Renal ischemia having treatment with L-tyrosine and induced reperfusion group (L-Tyr+IR).
L-Tyrosine (100 mg/kg) was suspended in 0.5% CMC (carboxymethyl cellulose). The animal was orally administered, once a day for 4 days, with L-tyrosine or the prepared solvent CMC. Thirty minutes after the oral administration on Day 4, renal ischemia was caused. Specifically, the animal abdomen was cut and renal pedicles at both sides were clamped using a Muller atraumatic vascular clamp to cause renal ischemia. After 25 minutes of blood ischemia, the clamp was removed followed by reperfusion. The control group (Sham) received the same operational procedures as above except the ischemia using clamp. Twenty-four hours after the reperfusion, the test animal was sacrificed, blood was collected from the heart, and the tissues were harvested.

[2] = system: glutamine synthetase (GS); assay: activity of glutamine synthetase (GS) in hippocampus lysate after kainic acid; format: in vivo; conditions: mouse survived after kainic acid, tyrosine diet vs ND/control
Procedure: To a 96-well plate, 2 μl of hippocampus lysate were added, and then adjusted to 50 μl by additionally adding 50 mM imidazole-HCl buffer solution (pH 6.8). After adding 50 μl of GS activity assay buffer solution (50 mM imidazole-HCl, pH 6.8, 25 mM L-glutamine, 12.5 mM hydroxylamine, 12.5 mM sodium arsenate, 1 mM MnCl2 and 0.08 mM ADP), the reaction was allowed to occur at 37° C. for 30 to 60 minutes.
Upon the completion of the reaction, γ-glutamylhydroxamate as a reference material was added to an empty well such that it is present at a concentration of between 0.391 and 25.0 mM. To the sample and reference material, 100 μl of reaction termination solution (90 mM FeCl3, 1.8 N HCl and 1.45% (w/v) trichloroacetic acid) were added and absorbance at a wavelength of 560 nm was measured.
Based on comparison with standard curve, GS activity was obtained for each sample. GS activity was expressed in terms of the production amount of γ-glutamylhydroxamate as a final product with unit of μM/min/μg of protein.

[3] = system: chronic immobilization stress group (STR); assay: amount of glutamate, glutamine, tyrosine and GABA in PFC by LC-MS/MS; format: in vivo, mouse; conditions: stress group fed tyrosine diet, vs normal group
Source text: The Amount of amino acids (glutamate, glutamine, tyrosine) and GABA in the PFC was quantified by liquid chromatography analysis (LC-MS/MS). PFC tissues were lysed first, and the tissue supernatant was collected and diluted with internal reference (L-Glu-d5) and mobile phase. The diluted sample was divided into 5 samples and injected to LC-MS/MS system (Agilent 6460). As for the column, SeQuant ZIC®-HILIC column (2.1×100 mm, 3.5 μm, 100 Å) was used, and, as a mobile phase, acetonitrile containing 0.1% formic acid was used, and the separation was made by using concentration gradient. For detecting the amino acids, multiple reaction monitoring and detection method was employed (m/z of Glu: 148→84, m/z of Gln: 147→84, m/z of GABA: 104→87, and m/z of internal reference: 153→88).

[4] = system: mouse model of epileptic seizure which has been induced to have seizure by kainic acid; assay: ROS/RNS in hippocampal tissues after kainic acid; format: in vivo; conditions: mouse survived after kainic acid, tyrosine diet vs ND
Procedure: Hippocampus in brain tissues was added with RIPA (containing proteinase/phosphatase inhibitor), in an amount of 100 μl per 10 mg of the tissues, and then lysed for 1 minute by using glass beads and a bullet blender. Supernatant was separated by centrifuge for 15 minutes at 12,000×g, 4° C., and, after 10-fold dilution with PBS, used for measurement of ROS/RNS. Concentration of ROS/RNS was measured by using Oxiselect ROS/RNS assay kit (Cell Biolabs) according to the recommended experimental protocol.

[5] = system: nitrotyrosine protein; assay: nitrotyrosine protein in liver tissues (Western blot), azoxymethane model; format: in vivo, mouse; conditions: L-tyrosine 100 mg/kg oral for 4 days, 16 hours after the administration of AOM
Procedure: C57BL/6 male mouse (13-week old, KOATECH, South Korea) was allowed to have free access to diets and water in sterile breeding room with constant temperature and humidity. The animals were divided into 3 test groups, i.e., (1) Control group (Control), (2) Carboxymethyl cellulose+azoxymethane treatment group (CMC+AOM), and (3) L-Tyrosine+AOM treatment group (L-Tyr+AOM). L-Tyrosine (100 mg/kg) was suspended in 0.5% CMC (carboxymethyl cellulose). The animal was orally administered, once a day for 4 days, with L-tyrosine or the prepared solvent CMC. Two hours after the oral administration on Day 4, intraperitoneal injection of AOM (100 mg/kg, […]) was carried out. To prevent dehydration, the animal was intraperitoneally injected with […] of physiological saline, 12 hours after the administration of AOM. Four hours after the injection, the test animal was sacrificed, blood was collected from the heart, and the liver tissues were harvested.
Liver tissues were homogenized with RIPA buffer solution. After centrifuge for 15 minutes at 16,000×g, 4° C., supernatant was collected and the protein quantification was carried out by BCA method. After SDS-PAGE electrophoresis, proteins were transferred to a PVDF membrane, and then blocked with 5% skim milk. […]

## N[C@@H](Cc1ccc(O)cc1)C(=O)O [tyrosine]
[1]
  activity of MnSOD: again recovered
[2]
  GS activity in hippocampal tissues: the same or higher than the control group; also recorded: statistically significant increase in GS activity
[3]
  amount of GABA in PFC: higher than the amount level of the normal group
  amount of glutamate in PFC: higher than the amount level of the normal group
  amount of glutamine in PFC: higher than the amount level of the normal group
  amount of tyrosine in PFC: higher than the amount level of the normal group
[4]
  ROS/RNS amount in hippocampal tissues: reduced to the level of the control group; also recorded: statistically significant decrease in ROS/RNS amount

## N[C@@H](Cc1ccc(O)cc1)C(=O)O [L-tyrosine]
[5]
  nitrotyrosine protein in liver tissues: suppressed with statistical significance
